# Test results from patent EP0594651B1, “DRIED BLOOD CELLS AND METHOD OF PREPARATION” (QUADRANT HOLDINGS CAMBRIDGE LIMITED, priority 1991, dated 1993).
# How the values were obtained:
# erythrocytes [1] = assay: Erythrocytes incubated in an organic osmolyte, freeze-dried, rehydrated in PBS with 40% glucopyranosyl sorbitol; intact erythrocytes counted microscopically (Example 1); type: cell-based; conditions: for % Intact Cells: incubated 2 hours at 37°C, freeze-dried; for freeze drying of erythrocytes: result in words
# Description: Whole blood was collected by venepuncture into the anticoagulant EDTA (used at a final concentration of 5mM), and then incubated for 2 hours at 37°C in one of the following osmolytes: proline, carnitine and betaine, over a range of concentrations. The samples were then frozen into a thin shell on the walls of the vessel and then placed under vacuum for drying. The vacuum was typically less than 25 µm Hg ([…]), and the samples were held under this vacuum for approxiamtely 16 hours.
# The freeze-dried samples were rehydrated by resuspending some of the dry material in an hypertonic solution consisting of phosphate buffered saline (PBS) containing glucopyranosyl sorbitol at a concentration of 40%. The samples were then assesed microscopically to determine the number of intact erythrocytes.
# erythrocytes [2] = assay: Freeze-dried erythrocytes rehydrated with solution A, then PBS; integrity assessed microscopically (Example 2); type: cell-based; conditions: then equivalent amount of PBS
# Description: After the dehydrated samples were resuspended fully, an equivalent amount of PBS was added, and the integrity of the erythrocytes were assessed microscopically.
# erythrocytes [3] = assay: Freeze-dried blood rehydrated with solution A and PBS; intact cells assessed by fluorescein dye exclusion (Example 4); type: cell-based
# Description: The solutions were incubated at 37°C for 2 hours and then frozen onto the walls of a […] in a thin shell by first immersing the flask while rotating it, in a mixture of solid carbon dioxide and methylated spirits. […] The blood was dried under this vacuum for at least 16 hours. […] The dry blood was rehydrated with 1 volume of solution A (see Example 2), and when all the dry blood was resuspended, an equivalent volume PBS was added.
# red cells = red cells dried in proline plus sugar 10% (w/v), stored at room temperature for 3 months
# Description: Fresh blood was withdrawn by venepuncture from healthy volunteers into the anti-coagulant EDTA (final concentration 5mM). The blood was centifuged and then washed 3 to 4 times in a potassium free buffered salt solution which contains the following ingredients: Table 5
# The cells were then resuspended finally at 50% and incubated for 60 minutes at 4°C, and aliquots were then dried at ambient temperature (evaporation cooled the samples) under a vacuum of less than 5 x 10^-2 mbar (50 Pa) for approximately 16 hours.
# The red cells were dried in aliquots of 250µl and the rehydration was inititated by the addition of 250µl of solution 1 to the dry aliquots. The cells were allowed to rehydrate slowly, and when in solution, 500µl of solution 2 was added. At this stage the cells were viewed under the microscope and the number of apparently intact cells was counted. A further 1 ml of solution 2 was then added and the cells were then centrifuged at 5,220 x g for 5 minutes. The supernatant was removed and the cells were resuspended in solution 2. For typing the red cell antigenic status, an equal volume of the red cells in solution 2 was added to an equal volume of an antibody mixed 1 : 1 with solution 1.
# The concentration of each sugar used was 10% (w/v). […]
# blood cells = assay: Vacuum-drying of blood cells in trehalose without organic osmolyte, then rehydration; type: cell-based; conditions: result in words; vacuum-drying in the absence of an organic osmolyte
# platelets = assay: Freeze-drying of platelets from Platelet Rich Plasma and recovery of whole platelets on rehydration (Example 5); type: cell-based; conditions: result in words
# Description: Blood was collected into the anti-coagulant, acid-citrate-dextrose, and the mixture then centrifuged at approximately 1100 x g for three minutes to harvest Platelet Rich Plasma.
# Aliquots of the Platelet Rich Plasma were then incubated in the presence of varying concentrations of proline, carnitine and trehalose on their own, and proline and carnitine in combination with trehalose, as well as a test sample in 7.5% NaCl. All samples were incubated for 37°C for 2 hours on a slowly moving rotary mixer, before freezing and drying.
# The dehydrated samples were rehydrated with either 1 volume of water, or 1 volume of water containing 2% carnitine. […] Results obtained when rehydrating with water in the presence of 2% carnitine were generally about 25% better than those achieved with water alone.
Compound,% Intact Cells (erythrocytes [1]; Final Concentration 5),% Intact Cells (erythrocytes [1]; Final Concentration 10),% Intact Cells (erythrocytes [1]; Final Concentration 15),% Intact Cells (erythrocytes [1]; Final Concentration 20),freeze drying of erythrocytes (erythrocytes [1]),% Intact Cells (erythrocytes [2]),% Intact Cells (erythrocytes [3]),% apparently intact cells (red cells),cells on rehydration (blood cells),platelets recovered on reconstitution (platelets)
"C[N+](C)(C)CC(=O)O [Betaine, betaine]",0%,35%,< 5%,0%,,,,,,
"C[N+](C)(C)CC(O)CC(=O)[O-] (stereo not drawn) [Carnitine, carnitine]",0%,< 1%,75%,62%,particularly successful,87%,70%,,,
"O=C(O)[C@@H]1CCCN1 [Proline, proline]",0%,62%,81%,< 1%,particularly successful,79%,78%,67%,,
OC[C@H]1O[C@H](O[C@H]2O[C@H](CO)[C@@H](O)[C@H](O)[C@H]2O)[C@H](O)[C@@H](O)[C@@H]1O [trehalose],,,,,,,,,only a very small percentage of cells,almost exclusively 'ghost' platelets
